US20070225308A1, “2-Amino Quinazoline Derivative” (Kyowa Hakko Kogyo Co.,Ltd., priority 2004, published 2007)

Tested on: not given
Assay: not given
Conditions: not given

Which melting point does the source give for CNc1ncc2c(-c3cccc(Cl)c3)cc(-c3ccc(CCC(=O)O)cc3)c(OC)c2n1 [Compound 55, 7-[4(2-Carboxyethyl)phenyl]-5-(3-chlorophenyl)-8-methoxy-2-(methylamino)quinazoline] here?
The melting point was 208 to 213 °C.

With CNc1ncc2c(-c3cccc(Cl)c3)cc(-c3cccc(CC(=O)O)c3)c(OC)c2n1 [Compound 59, 7-[3-(Carboxymethyl)phenyl]-5-(3-chlorophenyl)-8-methoxy-2-(methylamino)quinazoline] as the molecule, how does the melting point read?
The melting point was 258 to 261 °C.

With CNc1ncc2c(-c3cccc(Cl)c3)cc(/C=C/C(=O)O)c(OC)c2n1 [Compound 95, 7-[E-(2-carboxyethenyl)]-5-(3-chlorophenyl)-8-methoxy-2-(methylamino)quinazoline] as the molecule, how does the melting point read?
The melting point was 291 to 295 °C.

For CNc1ncc2c(-c3cccc(Cl)c3)cc(-c3ccc(C(=O)O)cc3)c(O)c2n1 [Compound 112, 7-(4-Carboxyphenyl)-5-(3-chlorophenyl)-8-hydroxy-2-(methylamino)quinazoline], which melting point is on record?
Its melting point is 291 to 296 °C.

Target: T1, recombinant human PDE-IV (HSPDE4A) (Homo sapiens, UniProt P27815)
T1 construct: made in house; host or cells: Sf9 insect cells
Assay: Recombinant Human PDE-IV-Inhibiting Test
Format: biochemical
Conditions: at the concentration of 0.1 μmol/L; substrate [3H]cAMP 1 μmol/L; read-out: enzyme-inhibitory activity
Method: Recombinant Human PDE-IV-Inhibiting Test
A human PDE cDNA (HSPDE4A) was isolated from HL-60 cells. An expected amino acid sequence thereof is the same as the sequence (HSPDE4A4) reported by Bolger G., et al (Mol. Cell. Biol., 1993, Vol. 13, p. 6558). The recombinant protein was expressed, using Sf9 insect cells. The PDE activity was measured according to the following two-step process, based on the method by Kincid R. L. and Manganiello V. C. (Method. Enzymol., 1988, Vol. 159, p. 457). [^3H]cAMP (final concentration: 1 μmol/L) was used as the substrate. The reaction was performed in a standard, mixture containing N,N-bis(2-hydroxyethyl)-2-aminoethanesulfonic acid (50 mmol/L, pH 7.2), magnesium chloride (1 mmol/L) and soybean trypsin inhibitor (0.1 mg/mL). The reaction was started by the addition of enzyme, and the reaction mixture was incubated at 30° C. for 10 to 30 minutes. The reaction was stopped by hydrochloric acid, and the formed 5′-AMP was completely decomposed by 5′-nucleotidase. The resulting mixture was treated with chromatography of DEAE-Sephadex A-25, and the eluted [^3H]adenosine was counted with a scintillation counter. The test compounds were dissolved in DMSO, and added to the system (concentration 1.7%).

T1 sequence (P27815 whole entry): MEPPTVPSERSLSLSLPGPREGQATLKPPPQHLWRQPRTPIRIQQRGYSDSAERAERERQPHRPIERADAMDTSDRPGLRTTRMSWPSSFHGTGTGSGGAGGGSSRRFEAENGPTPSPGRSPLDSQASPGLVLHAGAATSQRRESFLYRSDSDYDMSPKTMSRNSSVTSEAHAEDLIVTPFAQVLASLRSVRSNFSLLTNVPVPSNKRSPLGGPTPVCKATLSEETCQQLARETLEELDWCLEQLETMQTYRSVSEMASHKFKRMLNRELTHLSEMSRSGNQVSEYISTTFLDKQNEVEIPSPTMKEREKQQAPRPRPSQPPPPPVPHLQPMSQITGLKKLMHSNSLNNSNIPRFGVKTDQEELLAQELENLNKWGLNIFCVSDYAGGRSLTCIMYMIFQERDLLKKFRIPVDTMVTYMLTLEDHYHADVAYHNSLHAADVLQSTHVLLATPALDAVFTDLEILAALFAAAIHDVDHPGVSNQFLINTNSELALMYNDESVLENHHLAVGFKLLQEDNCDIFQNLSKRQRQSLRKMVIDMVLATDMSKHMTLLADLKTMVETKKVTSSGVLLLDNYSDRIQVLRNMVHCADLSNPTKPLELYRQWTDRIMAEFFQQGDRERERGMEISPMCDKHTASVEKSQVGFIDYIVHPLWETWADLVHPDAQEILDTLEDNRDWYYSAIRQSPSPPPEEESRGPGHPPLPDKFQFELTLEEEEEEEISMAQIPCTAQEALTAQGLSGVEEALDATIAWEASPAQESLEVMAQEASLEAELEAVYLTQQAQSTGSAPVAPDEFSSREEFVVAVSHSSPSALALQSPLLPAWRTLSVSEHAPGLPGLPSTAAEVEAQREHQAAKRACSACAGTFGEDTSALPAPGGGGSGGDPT

Which inhibition at 0.1 µM does the source give for COc1c(-c2ccc(C(=O)O)cc2)cc(-c2cccc([N+](=O)[O-])c2)c2cnc(N)nc12 [Compound 12, 2-Amino-7-(4-carboxyphenyl)-8-methoxy-5-(3-nitrophenyl)quinazoline] here?
Its inhibition at 0.1 µM is ≥ 50%.

For COc1c(-c2ccc(C(=O)O)cc2)cc(-c2cccc(Cl)c2)c2cnc(N)nc12 [Compound 13, 2-Amino-7-(4-carboxyphenyl)-5-(3-chlorophenyl)-8-methoxyquinazoline], which inhibition at 0.1 µM is on record?
The inhibition at 0.1 µM was ≥ 50%.

With COc1c(-c2ccc(C(=O)O)cc2)cc(-c2cccc([N+](=O)[O-])c2)c2cnc(N(C)C)nc12 [Compound 14, 7-(4-Carboxyphenyl)-2-dimethylamino-8-methoxy-5-(3-nitrophenyl)quinazoline] as the molecule, how does the inhibition at 0.1 µM read?
The inhibition at 0.1 µM was ≥ 50%.

With COc1c(-c2ccc(C(=O)O)cc2)cc(-c2cccc(Cl)c2)c2cnc(N(C)C)nc12 [Compound 15, 7-(4-Carboxyphenyl)-5-(3-chlorophenyl)-2-dimethylamino-8-methoxyquinazoline] as the molecule, how does the inhibition at 0.1 µM read?
Its inhibition at 0.1 µM is ≥ 50%.

Which inhibition at 0.1 µM does the source give for CNc1ncc2c(-c3cccc(Cl)c3)cc(-c3ccc(C(=O)O)cc3)c(OC)c2n1 [Compound 18, 7-(4-Carboxyphenyl)-5-(3-chlorophenyl)-8-methoxy-2-(methylamino)quinazoline] here?
Its inhibition at 0.1 µM is ≥ 50%.

For CNc1ncc2c(-c3cccc(C#N)c3)cc(-c3ccc(C(=O)O)cc3)c(OC)c2n1 [Compound 19, 7-(4-Carboxyphenyl)-5-(3-cyanophenyl)-8-methoxy-2-(methylamino)quinazoline], which inhibition at 0.1 µM is on record?
The inhibition at 0.1 µM was ≥ 50%.

For CNc1ncc2c(-c3cncc(Cl)c3)cc(-c3ccc(C(=O)O)cc3)c(OC)c2n1 [Compound 20, 7-(4-Carboxyphenyl)-5-(5-chloropyridine-3-yl)-8-methoxy-2-(methylamino)quinazoline], which inhibition at 0.1 µM is on record?
Its inhibition at 0.1 µM is ≥ 50%.

With CNc1ncc2c(-c3cccc(Cl)c3)cc(CCC(=O)O)c(OC)c2n1 [Compound 35, 7-(2-Carboxyethyl)-5-(3-chlorophenyl)-8-methoxy-2-(methylamino)quinazoline] as the molecule, how does the inhibition at 0.1 µM read?
Its inhibition at 0.1 µM is ≥ 50%.

With COc1c(-c2cccc(C(=O)O)c2)cc(-c2cccc(Cl)c2)c2cnc(N(C)C)nc12 [Compound 37, 7-(3-Carboxyphenyl)-5-(3-chlorophenyl)-2-dimethylamino-8-methoxyquinazoline] as the molecule, how does the inhibition at 0.1 µM read?
The inhibition at 0.1 µM was ≥ 50%.

For COc1c(C2=CCNCC2)cc(-c2cccc(Cl)c2)c2cnc(N(C)C)nc12 [Compound 43, 5-(3-Chlorophenyl)-2-dimethylamino-8-methoxy-7-(1,2,5,6-tetrahydropyridine-4-yl)quinazoline], which inhibition at 0.1 µM is on record?
The inhibition at 0.1 µM was ≥ 50%.
